# Assay results: patent EP4700023A1, “GLP-1R RECEPTOR AGONIST COMPOUND SALT AND CRYSTAL FORM THEREOF, PREPARATION METHOD THEREFOR AND USE THEREOF” (Chengdu Vincentage Pharma Co., Ltd., priority 2023, dated 2024)
# Experiments:
# [1] = Comparison of crystal forms of the salt (behaviour during preparation); conditions: during the preparation process
# Solubility test = type: physicochemical; conditions: thermodynamic from solid, water, 37°C, HPLC
# Procedure: Approximately 10 mg of the crystal compound was weighed and added to 3 mL of water, shaken, and maintained at 37°C.
# [2] = Purity test after storage in an oven at set temperature (stability); type: physicochemical; conditions: 80 °C for 30 days (footnote c)
# [3] = Compressibility test (tableting, XRPD detection); type: physicochemical; conditions: compressed into tablets
# [4] = Purity test after storage in an oven at set temperature (stability); type: physicochemical
# Procedure: Purity test: The sample to be tested was dissolved in a methanol solution, and the sample purity was measured by HPLC.
# [5] = Pharmacokinetic evaluation in rats; type: in vivo; conditions: plasma; Rat PK, oral (PO), 10 mg/kg
# Procedure: Rats were used as test animals, and the plasma drug concentrations at different time points after gavage administration of the test sample were measured. The pharmacokinetic behavior of the compound of the present disclosure in rats was studied to evaluate its metabolic characteristics. For each experimental group, 3 rats with similar body weights were selected and orally administered a single dose of 10 mg/kg. […] Pharmacokinetic parameter calculations were performed using metabolic kinetic data analysis software WinNonlin 7.0 by non-compartmental analysis (NCA) based on plasma concentration data.
# A test sample with a final preparation concentration (based on the content of the compound of formula I) of 1.0 mg/mL was prepared for oral administration, using a 0.5% CMC Na aqueous solution as the preparation solvent.
# Administration: After overnight fasting (12 hours), rats were administered by gavage at a dose of 10 mg/kg.
# The blood samples were placed in heparinized sample tubes, and centrifuged at 4°C and 3500 rpm for 10 minutes to separate plasma, which was then stored at -20°C. Food was provided 2 hours after administration.
# Determination of the content of the compound to be tested in rat plasma after gavage administration: After thawing plasma samples at room temperature, 300 µL of internal standard (terfenadine 200 ng/mL, acetonitrile) was added to each sample. The mixtures were vortexed for 1 min and then centrifuged at 4°C and 15400 rpm for 10 min. The supernatant was diluted 20-fold with 80% acetonitrile-water and then injected for LC/MS/MS analysis.
# [6] = Grindability test (mortar, XRPD detection); type: physicochemical
# Procedure: Grindability test: An appropriate amount of the crystal compound to be tested was placed in a mortar and ground for 2 min and 5 min, followed by XRPD detection.
# [7] = Hygroscopicity test method (DVS); type: physicochemical; conditions: 80% RH, 25°C, DVS
# Procedure: Hygroscopicity test method (DVS): The hygroscopicity of the sample was measured using SMS Intrinsic Plus. The sample was weighed into a sample pan, equilibrated at 25°C until dm/dt was less than 0.002%, and then measured in time mode. The humidity was adjusted from 60%-90%-0%-90%-0% RH, with increments of 10% RH per step, and each humidity level was maintained for 1 hour.
SMILES,Crystal form stability during preparation [1],solubility at 24 h (Solubility test) [µg/mL],Solid form after 80°C (result after 30 days) [2],Compressibility (20 Mp) [3],"Purity, 2 to 8°C (6 months) ([4]; 2 to 8°C, 6 months, HPLC) [%]","Purity, Onset ([4]; Onset (before storage), HPLC) [%]","Thermal stability ([4]; conclusion from Table 13, degrades under heating or room temperature)","Purity, 60°C (7 day) ([4]; oven, 60°C, 7 day, HPLC) [%]","Purity, 80°C (result after 30 days) ([4]; oven, 80 °C for 30 days (footnote c), HPLC) [%]",AUC(0-inf) [5] [ng·h/mL],AUC(0-t) [5] [ng·h/mL],Cmax [5] [ng/mL],Tmax [5] [min],half-life [5] [min],"Grindability (mortar 5 min), purity change [6] [%]","Grindability (mortar 5 min), solid form ([6]; XRPD)",Hygroscopicity (80% RH) [7] [%],"Hygroscopicity (80% RH), description in words [7] [% RH linear reversible]"
"C1COCCO1.NC(CO)(CO)CO.O=C(O)c1ccc2nc(CN3CCC(c4ccccc4OCc4ccc(Cl)cc4F)CC3)n(CC3CCO3)c2c1 [Crystal form B of the 1,4-dioxane solvate of the 2-amino-2-(hydroxymethyl)-1,3-propanediol salt of (S)-2-((4-(2-((4-chloro-2-fluorobenzyl)oxy)phenyl)piperidin-1-yl)methyl)-1-(oxetan-2-aminomethyl)-1H-benzo[d]imidazole-6-carboxylate]","unstable, prone to crystal form transformation during preparation",–,–,–,–,–,–,–,–,–,–,–,–,–,–,–,–,–
O=C(O)c1ccc2nc(CN3CCC(c4ccccc4OCc4ccc(Cl)cc4F)CC3)n(C[C@@H]3CCO3)c2c1 [Compound of formula I],–,< 1,amorphous,"Significant reduction in crystallinity, amorphization",82.49,99.15,poor thermal stability,99.15,70.18,401,396,154,40,65.4,6.5,Amorphous,0.25,10 to 90
